Values of other authors as cited in publication PMC10721329, “Quisinostat is a brain-penetrant radiosensitizer in glioblastoma” (JCI Insight, 2023).

Conditions: human, in vivo; cited from earlier work

Cc1[nH]c2ccccc2c1CCNCc1ccc(/C=C/C(=O)NO)cc1 [panobinostat]
hematologic toxicities compared with QST: far more common and severe (grade 3 and 4)
